Experiments:
[1] = target: SRSF protein kinase 1 (Homo sapiens) (UniProt Q96SB4); assay: Residual activity of human SRPK1 using GRSRSRSRSR as substrate at 1 uM in presence of 32P-ATP by Hotspot assay relative to control
[2] = target: Dual specificity protein kinase CLK3 (Homo sapiens) (UniProt P49761); assay: Residual activity of human CLK3 using myelin basic protein as substrate at 1 uM in presence of 32P-ATP by Hotspot assay relative to control
[3] = target: Mitogen-activated protein kinase kinase kinase 10 (Homo sapiens) (UniProt Q02779); assay: Residual activity of human MLK2/MAP3K10 using myelin basic protein as substrate at 1 uM in presence of 32P-ATP by Hotspot assay relative to control
[4] = target: Casein kinase II subunit alpha (Homo sapiens) (UniProt P68400); assay: Inhibition of human CK2a using RRRDDDSDDD as substrate at 1 uM in presence of 32P-ATP by Hotspot assay relative to control; values are per cent of control
[5] = target: Myosin light chain kinase, smooth muscle (Homo sapiens) (UniProt Q15746); assay: Inhibition of human MLCK/MYLK using KKLNRTLSFAEPG as substrate at 1 uM in presence of 32P-ATP by Hotspot assay relative to control; values are per cent of control
[6] = target: Protein kinase C eta type (Homo sapiens) (UniProt P24723); assay: Inhibition of human PKCeta using ERMRPRKRQGSVRRRV as substrate at 1 uM in presence of 32P-ATP by Hotspot assay relative to control; values are per cent of control
[7] = target: MAP kinase-interacting serine/threonine-protein kinase 2 (Homo sapiens) (UniProt Q9HBH9); assay: Inhibition of human MNK2 using myelin basic protein as substrate at 1 uM in presence of 32P-ATP by Hotspot assay relative to control; values are per cent of control
[8] = target: T1, Serine/threonine-protein kinase TBK1 (Homo sapiens) (UniProt Q9UHD2); assay: Inhibition of human TBK1 using myelin basic protein as substrate at 1 uM in presence of 32P-ATP by Hotspot assay relative to control; values are per cent of control
T1 sequence (whole entry): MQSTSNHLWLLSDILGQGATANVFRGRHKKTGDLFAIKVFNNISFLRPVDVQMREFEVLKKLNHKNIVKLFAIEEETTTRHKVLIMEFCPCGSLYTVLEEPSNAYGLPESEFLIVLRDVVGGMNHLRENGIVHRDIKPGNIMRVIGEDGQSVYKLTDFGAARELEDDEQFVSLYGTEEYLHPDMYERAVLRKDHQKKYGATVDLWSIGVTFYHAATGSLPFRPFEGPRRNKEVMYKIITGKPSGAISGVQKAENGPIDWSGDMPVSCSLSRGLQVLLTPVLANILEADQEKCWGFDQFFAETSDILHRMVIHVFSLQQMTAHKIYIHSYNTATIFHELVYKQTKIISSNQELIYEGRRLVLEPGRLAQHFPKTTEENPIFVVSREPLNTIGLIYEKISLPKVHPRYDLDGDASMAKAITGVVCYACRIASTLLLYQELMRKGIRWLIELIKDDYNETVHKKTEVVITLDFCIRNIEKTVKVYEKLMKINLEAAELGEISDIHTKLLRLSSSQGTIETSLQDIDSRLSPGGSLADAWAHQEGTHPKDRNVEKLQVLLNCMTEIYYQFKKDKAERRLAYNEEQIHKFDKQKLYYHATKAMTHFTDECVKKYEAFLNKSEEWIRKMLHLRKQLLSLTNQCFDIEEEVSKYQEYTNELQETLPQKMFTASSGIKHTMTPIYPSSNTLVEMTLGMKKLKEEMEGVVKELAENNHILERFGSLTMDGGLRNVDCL

[9] = target: Interleukin-1 receptor-associated kinase 1 (Homo sapiens) (UniProt P51617); assay: Inhibition of human IRAK1 using myelin basic protein as substrate at 1 uM in presence of 32P-ATP by Hotspot assay relative to control; values are per cent of control
[10] = target: T2, Tyrosine-protein kinase receptor TYRO3 (Homo sapiens) (UniProt Q06418); assay: Inhibition of human TYRO3/SKY using poly[Glu:Tyr] (4:1) as substrate at 1 uM in presence of 32P-ATP by Hotspot assay relative to control; values are per cent of control
T2 sequence (whole entry): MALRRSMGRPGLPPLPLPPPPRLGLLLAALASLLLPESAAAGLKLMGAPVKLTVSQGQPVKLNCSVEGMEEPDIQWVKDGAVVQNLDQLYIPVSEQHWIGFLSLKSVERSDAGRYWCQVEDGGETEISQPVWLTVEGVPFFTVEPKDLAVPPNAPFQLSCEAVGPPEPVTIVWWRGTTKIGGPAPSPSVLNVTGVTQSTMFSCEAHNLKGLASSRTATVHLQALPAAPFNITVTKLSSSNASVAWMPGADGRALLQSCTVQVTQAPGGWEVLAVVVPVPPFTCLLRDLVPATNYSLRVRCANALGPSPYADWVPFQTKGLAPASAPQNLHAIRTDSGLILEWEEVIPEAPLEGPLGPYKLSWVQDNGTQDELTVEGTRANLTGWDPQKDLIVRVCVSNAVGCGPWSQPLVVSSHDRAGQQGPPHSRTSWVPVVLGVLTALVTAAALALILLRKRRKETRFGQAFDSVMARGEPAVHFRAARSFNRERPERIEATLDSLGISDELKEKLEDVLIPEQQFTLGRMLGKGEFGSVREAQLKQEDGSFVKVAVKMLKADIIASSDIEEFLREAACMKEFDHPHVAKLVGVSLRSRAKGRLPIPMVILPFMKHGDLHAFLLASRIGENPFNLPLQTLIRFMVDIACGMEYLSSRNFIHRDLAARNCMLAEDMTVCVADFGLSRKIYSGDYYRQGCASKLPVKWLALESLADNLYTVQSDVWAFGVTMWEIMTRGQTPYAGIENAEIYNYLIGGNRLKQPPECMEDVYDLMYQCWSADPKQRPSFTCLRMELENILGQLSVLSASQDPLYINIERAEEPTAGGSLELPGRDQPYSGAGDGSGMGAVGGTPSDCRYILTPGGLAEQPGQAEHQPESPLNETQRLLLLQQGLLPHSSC

[11] = target: Vascular endothelial growth factor receptor 2 (Homo sapiens) (UniProt P35968); assay: Inhibition of human KDR/VEGFR2 using poly[Glu:Tyr] (4:1) as substrate at 1 uM in presence of 32P-ATP by Hotspot assay relative to control; values are per cent of control
Chain of Vascular endothelial growth factor receptor 2 (Homo sapiens) (P35968 whole entry): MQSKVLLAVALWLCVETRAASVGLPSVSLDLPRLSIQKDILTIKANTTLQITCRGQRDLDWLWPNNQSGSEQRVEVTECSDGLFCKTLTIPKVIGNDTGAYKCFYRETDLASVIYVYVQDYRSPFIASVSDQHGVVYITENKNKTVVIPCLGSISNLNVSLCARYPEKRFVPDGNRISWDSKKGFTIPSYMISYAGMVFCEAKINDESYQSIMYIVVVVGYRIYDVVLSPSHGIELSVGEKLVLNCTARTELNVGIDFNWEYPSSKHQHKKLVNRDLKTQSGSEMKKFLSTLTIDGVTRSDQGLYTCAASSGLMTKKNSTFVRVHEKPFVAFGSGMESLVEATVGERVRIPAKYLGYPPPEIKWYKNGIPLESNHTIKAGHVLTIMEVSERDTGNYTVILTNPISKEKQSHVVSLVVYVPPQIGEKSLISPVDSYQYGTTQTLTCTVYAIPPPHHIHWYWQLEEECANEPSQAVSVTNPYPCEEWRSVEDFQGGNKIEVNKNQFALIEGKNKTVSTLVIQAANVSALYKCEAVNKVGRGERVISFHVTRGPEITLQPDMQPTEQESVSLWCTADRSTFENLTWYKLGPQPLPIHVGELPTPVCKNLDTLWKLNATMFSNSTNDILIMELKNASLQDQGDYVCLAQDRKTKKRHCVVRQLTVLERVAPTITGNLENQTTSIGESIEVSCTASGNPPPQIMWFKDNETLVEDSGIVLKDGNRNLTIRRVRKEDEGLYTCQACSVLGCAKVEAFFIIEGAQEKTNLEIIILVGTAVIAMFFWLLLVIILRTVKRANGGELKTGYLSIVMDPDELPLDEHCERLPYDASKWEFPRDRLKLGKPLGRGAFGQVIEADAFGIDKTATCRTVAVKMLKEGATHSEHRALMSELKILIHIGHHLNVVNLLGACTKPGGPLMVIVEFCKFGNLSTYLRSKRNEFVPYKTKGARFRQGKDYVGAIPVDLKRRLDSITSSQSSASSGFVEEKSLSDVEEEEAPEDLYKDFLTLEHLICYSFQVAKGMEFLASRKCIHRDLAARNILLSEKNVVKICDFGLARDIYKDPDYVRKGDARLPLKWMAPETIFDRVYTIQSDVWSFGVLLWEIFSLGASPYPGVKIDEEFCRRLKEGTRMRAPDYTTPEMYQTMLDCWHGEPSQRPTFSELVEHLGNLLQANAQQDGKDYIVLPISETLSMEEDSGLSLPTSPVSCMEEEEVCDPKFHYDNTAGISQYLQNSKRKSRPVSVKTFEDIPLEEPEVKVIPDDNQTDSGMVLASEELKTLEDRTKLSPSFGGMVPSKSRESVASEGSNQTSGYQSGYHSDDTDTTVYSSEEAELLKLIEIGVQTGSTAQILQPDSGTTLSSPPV

Chain of Dual specificity protein kinase CLK3 (Homo sapiens) (P49761 whole entry, looked up): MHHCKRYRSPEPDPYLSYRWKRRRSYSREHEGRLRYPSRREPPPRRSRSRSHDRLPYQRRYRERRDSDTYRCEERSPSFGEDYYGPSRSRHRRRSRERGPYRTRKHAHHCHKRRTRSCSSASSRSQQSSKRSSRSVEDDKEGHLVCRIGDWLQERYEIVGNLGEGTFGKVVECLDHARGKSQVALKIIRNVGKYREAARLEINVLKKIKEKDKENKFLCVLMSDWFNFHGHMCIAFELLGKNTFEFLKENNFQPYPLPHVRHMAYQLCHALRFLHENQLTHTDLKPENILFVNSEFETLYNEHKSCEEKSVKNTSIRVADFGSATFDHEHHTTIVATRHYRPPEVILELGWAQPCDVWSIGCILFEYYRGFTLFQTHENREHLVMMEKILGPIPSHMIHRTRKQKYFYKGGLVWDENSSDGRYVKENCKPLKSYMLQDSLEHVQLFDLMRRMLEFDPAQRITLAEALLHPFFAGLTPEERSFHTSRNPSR
Chain of SRSF protein kinase 1 (Homo sapiens) (Q96SB4 whole entry): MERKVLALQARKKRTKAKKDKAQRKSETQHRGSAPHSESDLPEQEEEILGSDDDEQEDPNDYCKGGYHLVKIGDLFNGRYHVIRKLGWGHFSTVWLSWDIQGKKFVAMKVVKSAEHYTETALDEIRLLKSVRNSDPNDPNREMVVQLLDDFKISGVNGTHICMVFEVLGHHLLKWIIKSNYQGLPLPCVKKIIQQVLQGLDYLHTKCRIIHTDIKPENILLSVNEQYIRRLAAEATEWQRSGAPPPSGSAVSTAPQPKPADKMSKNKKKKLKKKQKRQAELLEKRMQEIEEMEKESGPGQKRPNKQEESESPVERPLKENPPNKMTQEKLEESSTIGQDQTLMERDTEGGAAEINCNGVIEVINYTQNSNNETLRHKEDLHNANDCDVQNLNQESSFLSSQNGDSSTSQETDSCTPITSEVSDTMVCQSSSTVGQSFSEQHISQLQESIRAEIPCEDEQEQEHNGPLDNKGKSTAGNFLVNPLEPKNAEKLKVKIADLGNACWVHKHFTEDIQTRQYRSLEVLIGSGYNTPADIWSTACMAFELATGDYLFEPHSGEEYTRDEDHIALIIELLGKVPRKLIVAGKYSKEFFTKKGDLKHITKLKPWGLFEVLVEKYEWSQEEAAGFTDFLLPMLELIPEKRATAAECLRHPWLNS
Chain of Protein kinase C eta type (Homo sapiens) (P24723 whole entry): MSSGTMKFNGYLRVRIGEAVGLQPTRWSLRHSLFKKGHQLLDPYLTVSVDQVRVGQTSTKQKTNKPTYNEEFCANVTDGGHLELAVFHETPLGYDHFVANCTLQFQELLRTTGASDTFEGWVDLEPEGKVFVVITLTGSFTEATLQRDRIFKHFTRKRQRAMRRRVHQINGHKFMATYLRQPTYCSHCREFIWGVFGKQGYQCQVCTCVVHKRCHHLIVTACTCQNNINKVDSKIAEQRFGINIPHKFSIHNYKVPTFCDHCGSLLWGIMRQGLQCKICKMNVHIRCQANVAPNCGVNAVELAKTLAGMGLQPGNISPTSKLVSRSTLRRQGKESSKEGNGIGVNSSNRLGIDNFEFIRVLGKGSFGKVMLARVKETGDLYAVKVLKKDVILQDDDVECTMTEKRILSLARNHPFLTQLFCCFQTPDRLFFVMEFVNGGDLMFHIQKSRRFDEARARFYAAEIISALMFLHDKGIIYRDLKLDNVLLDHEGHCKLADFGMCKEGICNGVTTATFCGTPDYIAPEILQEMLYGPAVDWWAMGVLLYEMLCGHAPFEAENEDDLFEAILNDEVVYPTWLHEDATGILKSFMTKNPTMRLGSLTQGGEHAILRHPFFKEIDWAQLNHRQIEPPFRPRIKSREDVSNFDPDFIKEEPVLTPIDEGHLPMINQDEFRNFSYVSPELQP
Chain of Casein kinase II subunit alpha (Homo sapiens) (P68400 whole entry, looked up): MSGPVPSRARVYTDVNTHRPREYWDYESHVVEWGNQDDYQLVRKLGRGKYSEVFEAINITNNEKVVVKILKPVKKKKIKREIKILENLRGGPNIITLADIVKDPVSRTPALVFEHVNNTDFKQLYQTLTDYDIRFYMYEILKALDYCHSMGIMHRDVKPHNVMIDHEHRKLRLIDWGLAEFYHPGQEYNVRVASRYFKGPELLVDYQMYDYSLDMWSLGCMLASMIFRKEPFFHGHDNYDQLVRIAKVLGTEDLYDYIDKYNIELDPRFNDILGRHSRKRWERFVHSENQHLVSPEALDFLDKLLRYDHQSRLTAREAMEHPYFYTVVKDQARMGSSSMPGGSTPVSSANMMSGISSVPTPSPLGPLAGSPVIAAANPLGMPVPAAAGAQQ
Chain of Interleukin-1 receptor-associated kinase 1 (Homo sapiens) (P51617 whole entry, looked up): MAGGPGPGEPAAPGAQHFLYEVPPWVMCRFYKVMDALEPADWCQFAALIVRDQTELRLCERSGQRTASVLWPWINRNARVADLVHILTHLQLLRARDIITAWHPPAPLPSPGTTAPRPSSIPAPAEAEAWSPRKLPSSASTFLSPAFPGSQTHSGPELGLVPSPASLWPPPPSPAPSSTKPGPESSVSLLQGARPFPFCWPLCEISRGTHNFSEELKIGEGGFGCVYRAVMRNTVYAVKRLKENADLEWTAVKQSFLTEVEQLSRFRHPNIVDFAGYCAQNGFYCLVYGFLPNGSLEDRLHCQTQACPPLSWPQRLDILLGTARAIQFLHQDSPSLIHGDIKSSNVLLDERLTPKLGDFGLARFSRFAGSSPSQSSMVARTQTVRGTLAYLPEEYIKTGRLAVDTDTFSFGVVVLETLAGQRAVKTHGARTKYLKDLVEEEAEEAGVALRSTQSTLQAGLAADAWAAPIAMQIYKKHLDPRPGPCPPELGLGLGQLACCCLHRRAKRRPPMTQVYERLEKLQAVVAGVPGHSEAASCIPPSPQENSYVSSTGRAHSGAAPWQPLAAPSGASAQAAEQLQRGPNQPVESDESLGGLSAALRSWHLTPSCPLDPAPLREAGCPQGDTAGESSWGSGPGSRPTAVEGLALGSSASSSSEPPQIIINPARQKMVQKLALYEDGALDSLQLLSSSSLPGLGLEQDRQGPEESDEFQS
Chain of MAP kinase-interacting serine/threonine-protein kinase 2 (Homo sapiens) (Q9HBH9 whole entry, looked up): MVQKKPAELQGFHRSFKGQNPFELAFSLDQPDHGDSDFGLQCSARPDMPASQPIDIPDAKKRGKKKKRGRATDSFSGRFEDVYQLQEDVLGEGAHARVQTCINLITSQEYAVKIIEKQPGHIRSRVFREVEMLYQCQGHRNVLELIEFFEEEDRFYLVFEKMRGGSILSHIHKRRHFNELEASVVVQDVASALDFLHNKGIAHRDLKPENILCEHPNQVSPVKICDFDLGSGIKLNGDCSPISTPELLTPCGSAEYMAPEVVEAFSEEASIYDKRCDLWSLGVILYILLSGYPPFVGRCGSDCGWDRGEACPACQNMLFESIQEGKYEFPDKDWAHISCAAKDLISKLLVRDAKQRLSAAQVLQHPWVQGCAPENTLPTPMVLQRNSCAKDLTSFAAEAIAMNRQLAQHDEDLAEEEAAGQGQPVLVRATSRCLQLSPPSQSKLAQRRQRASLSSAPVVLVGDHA

Row | Structure (SMILES) | residual activity [1] | residual activity [2] | residual activity [3] | residual activity [4] | residual activity [5] | residual activity [6] | residual activity [7] | residual activity [8] | residual activity [9] | residual activity [10] | residual activity [11]
1 | Cc1cc(-c2cnc(N)c3c(-c4ccc5scnc5c4)csc23)n(C)n1 | 95.3% | 98.3% | 97.5% | 54.7% | 95.3% | 73.6% | 97.9% | 105% | 90% | 100% | 59.8%
2 | CNC(=O)c1ccc2c(c1)ncn2-c1ccc(CC(=O)OC(C)(C)C)cc1 | 112% | 97.4% | 90.9% | 75.6% | 97.7% | 92.5% | 70.6% | 84.2% | 78.6% | 99.3% | 78.7%
3 | CC(C)S(=O)(=O)c1ccc2nccc(Nc3ccc4scnc4c3)c2c1 | 104% | 99% | 84.5% | 92.4% | 97.9% | 88% | 96% | 96.1% | 102% | 84.6% | 17.4%
